# Assay results as given in patent US4950466A, “Reduction of the severity of 3'-azido-3'-deoxythymidine-induced anemia using a combination of benzylacyclouridine and dipyridamole” (priority 1988, dated 1990).
# Columns and labels:
# [1] = Blood counts (hemoglobin, hematocrit, white blood cells) in mice receiving AZT, BAU and/or DPR; pooled blood, Coulter Counter; assay type: in vivo, Female Balb/c mice; set-up: Hb (hemoglobin) / Hct (hematocrit): unit not given here
# Experimental: For oral administration, BAU was dissolved in water to achieve a final concentration of 0.3 mg/mL. For intraperitoneal administration, BAU was dissolved in dimethylsulfoxide (DMSO) to achieve final concentrations of 60, 100, or 120 mg/mL.
# The solution was centrifuged at 15,000 rpm for 20 minutes.
# (§1) Female Balb/c mice, 6-12 weeks old, were purchased from the Animal Care Facility of the Roger Williams Cancer Center. The animals were randomly divided into eight groups. Six of the treatment protocols were performed in duplicate. Each group contained either eight or nine animals. The animals were weighed once weekly. Food and water was available ad libitum. Blood samples were obtained from the tail vein. The first blood sample was obtained on Day 0 and subsequent samples were obtained on Days 19, 27, 34 and 44, 48, 54 and 68 after the initiation of drug treatment. With each sampling, approximately 100 ul of blood was removed from each animal. The blood obtained from the animals in each group was pooled and analyzed by Coulter Counter. On each sample, hemoglobin, hematocrit, and white blood cell count were determined. The mean red cell volume was calculated. The Treatment Groups were as follows:
# DMSO was given ip, 0.O1 mL/5 grams body weight, once weekly.
# Group 4--BAU 240 mg/kg, ip, once weekly.
# This corresponds to a daily administered dose of 43 mg/kg.
# The concentration was 0.69 mg/ml which corresponds to an administered dose of 100 mg/kg/day.
# [2] = Oral bioavailability of BAU; details: in vivo, 43 mg/kg, drinking water, read-out: bioavailability of BAU administered orally
# Experimental: Group 7--AZT administered in the drinking water (1 mg/mL) and BAU administered in the same container of drinking water (0.3 mg/mL). This corresponds to a daily administered dose of 43 mg/kg. The bioavailability of BAU administered orally was 80%. Therefore, the bioavailable dose of BAU administered to this group was 240 mg/kg/week.
# uridine phosphorylase = details: cited from earlier work
# [3] = Weekly body weight of treated mice; assay type: in vivo, Female Balb/c mice; details: measured each week
# Experimental: as §1
# Body weights of the animals in the treatment groups were measured each week.
# [4] = test system: granulocyte macrophage colony forming cells; details: in vitro; cited from earlier work
# [5] = test system: erythroid burst-forming cells; details: in vitro; cited from earlier work
# [6] = test system: human immunodifficiency virus reverse transcriptase; details: cited from earlier work
# [7] = test system: human bone marrow progenitor (HBMP) cells; details: in vitro; cited from earlier work
# [8] = human, in vivo; cited from earlier work
# [9] = Day 0, AZT 1 mg/mL and/or DPR 0.69 mg/mL in drinking water, no BAU (Groups 3, 8, 9)
# [10] = Day 19, AZT 1 mg/mL and/or DPR 0.69 mg/mL in drinking water, no BAU (Groups 3, 8, 9)
# [11] = Day 27, AZT 1 mg/mL and/or DPR 0.69 mg/mL in drinking water, no BAU (Groups 3, 8, 9)
# [12] = Day 34, AZT 1 mg/mL and/or DPR 0.69 mg/mL in drinking water, no BAU (Groups 3, 8, 9)
# [13] = Day 44, DPR 0.69 mg/mL with or without AZT 1 mg/mL in drinking water (Groups 8, 9)
# [14] = Day 54, DPR 0.69 mg/mL with or without AZT 1 mg/mL in drinking water (Groups 8, 9)
# [15] = Day 68, DPR 0.69 mg/mL with or without AZT 1 mg/mL in drinking water (Groups 8, 9)
# [16] = Day 0, BAU 240 mg/kg ip once weekly, without (Group 4) or with (Group 5) AZT 1 mg/mL in drinking water
# [17] = Day 19, BAU 240 mg/kg ip once weekly, without (Group 4) or with (Group 5) AZT 1 mg/mL in drinking water
# [18] = Day 27, BAU 240 mg/kg ip once weekly, without (Group 4) or with (Group 5) AZT 1 mg/mL in drinking water
# [19] = Day 34, BAU 240 mg/kg ip once weekly, without (Group 4) or with (Group 5) AZT 1 mg/mL in drinking water
# [20] = Day 48, BAU 240 mg/kg ip once weekly, without (Group 4) or with (Group 5) AZT 1 mg/mL in drinking water
# [21] = Day 0, AZT 1 mg/mL in drinking water (145 mg/kg/day) + DMSO ip once weekly (Group 2)
# [22] = Day 19, AZT 1 mg/mL in drinking water (145 mg/kg/day) + DMSO ip once weekly (Group 2)
# [23] = Day 27, AZT 1 mg/mL in drinking water (145 mg/kg/day) + DMSO ip once weekly (Group 2)
# [24] = Day 34, AZT 1 mg/mL in drinking water (145 mg/kg/day) + DMSO ip once weekly (Group 2)
# [25] = Day 48, AZT 1 mg/mL in drinking water (145 mg/kg/day) + DMSO ip once weekly (Group 2)
# [26] = Day 48, AZT 1 mg/mL in drinking water (Group 3)
structure (smiles),measurement,setting,value
"OCCN(CCO)c1nc(N2CCCCC2)c2nc(N(CCO)CCO)nc(N3CCCCC3)c2n1 [DPR, 2,2',2""2'""-(4,8-dipiperidinopyimidol[5,4-d]pyrimidene-2,6-diyldinitrilo) tetraethanol]",Hb (hemoglobin),[1]; [9],16.5
same,Hct (hematocrit),[1]; [9],48.0
same,WBC (white blood cell count),[1]; [9],5.9
same,Hb (hemoglobin),[1]; [10],14.3
same,Hct (hematocrit),[1]; [10],49
same,WBC (white blood cell count),[1]; [10],11.1
same,Hb (hemoglobin),[1]; [11],15.5
same,Hct (hematocrit),[1]; [11],45
same,WBC (white blood cell count),[1]; [11],10
same,Hb (hemoglobin),[1]; [12],14.8
same,Hct (hematocrit),[1]; [12],45
same,WBC (white blood cell count),[1]; [12],9.4
same,Hb (hemoglobin),[1]; [13],14.6
same,Hct (hematocrit),[1]; [13],45
same,WBC (white blood cell count),[1]; [13],9.1
same,Hb (hemoglobin),[1]; [14],15.4
same,Hct (hematocrit),[1]; [14],46
same,WBC (white blood cell count),[1]; [14],7.6
same,Hb (hemoglobin),[1]; [15],15.7
same,Hct (hematocrit),[1]; [15],45
same,WBC (white blood cell count),[1]; [15],9.3
"O=c1[nH]c(=O)n(COCCO)cc1Cc1ccccc1 [BAU, 5-benzylacyclouridine]",Hb (hemoglobin),[1]; [16],18.3
same,Hct (hematocrit),[1]; [16],52.0
same,WBC (white blood cell count),[1]; [16],8.8
same,Hb (hemoglobin),[1]; [17],17.3
same,Hct (hematocrit),[1]; [17],50.0
same,WBC (white blood cell count),[1]; [17],10.8
same,Hb (hemoglobin),[1]; [18],16.2
same,Hct (hematocrit),[1]; [18],51
same,WBC (white blood cell count),[1]; [18],6.6
same,Hb (hemoglobin),[1]; [19],17.2
same,Hct (hematocrit),[1]; [19],50
same,WBC (white blood cell count),[1]; [19],7.9
same,Hb (hemoglobin),[1]; [20],16.6
same,Hct (hematocrit),[1]; [20],49
same,WBC (white blood cell count),[1]; [20],6.4
same,bioavailability,[2],80%
same,inhibition of cleavage of 5-fluoro-2'-deoxyuridine,uridine phosphorylase,inhibits the cleavage of the antineoplastic 5-fluoro-2'-deoxyuridine
same,inhibition of uridine phosphorylase,uridine phosphorylase; cleavage of uridine to uracil,inhibitor of the enzyme uridine phosphorylase
"Cc1cn([C@H]2C[C@H](N=[N+]=[N-])[C@@H](CO)O2)c(=O)[nH]c1=O [AZT, 3'-Azido-3'-deoxythymidine]",Hb (hemoglobin),[1]; [9],17.3
same,Hct (hematocrit),[1]; [9],43.0
same,WBC (white blood cell count),[1]; [9],8.4
same,Hb (hemoglobin),[1]; [21],17.3
same,Hct (hematocrit),[1]; [21],49.0
same,WBC (white blood cell count),[1]; [21],10.1
same,Hb (hemoglobin),[1]; [10],13.7
same,Hct (hematocrit),[1]; [10],43.0
same,Hb (hemoglobin),[1]; [22],12.8
same,Hct (hematocrit),[1]; [22],36.0
same,WBC (white blood cell count),[1]; [22],21.2
same,Hb (hemoglobin),[1]; [11],13.6
same,Hct (hematocrit),[1]; [11],43
same,WBC (white blood cell count),[1]; [11],13.6
same,Hb (hemoglobin),[1]; [23],13
same,Hct (hematocrit),[1]; [23],40
same,WBC (white blood cell count),[1]; [23],11.6
same,Hb (hemoglobin),[1]; [12],13.9
same,Hct (hematocrit),[1]; [12],42
same,WBC (white blood cell count),[1]; [12],13.3
same,Hb (hemoglobin),[1]; [24],11.6
same,Hct (hematocrit),[1]; [24],35
same,WBC (white blood cell count),[1]; [24],11.5
same,Hb (hemoglobin),[1]; [25],11.0
same,Hct (hematocrit),[1]; [25],33
same,WBC (white blood cell count),[1]; [25],5.0
same,Hb (hemoglobin),[1]; [26],13.2
same,Hct (hematocrit),[1]; [26],34
same,WBC (white blood cell count),[1]; [26],5.6
same,nature of anemia produced in mice,[1]; mice,typical of AZT induced anemia in humans
same,body weight over time,[3],tended to lose weight as their anemia increased over time
same,inhibition of granulocyte macrophage colony forming cells,[4],consistently inhibit granulocyte macrophage colony forming cells and erythroid burst-forming cells in dose-dependent fashion
same,inhibition of erythroid burst-forming cells,[5],consistently inhibit granulocyte macrophage colony forming cells and erythroid burst-forming cells in dose-dependent fashion
same,inhibition of HIV reverse transcriptase,[6],inhibits the human immunodifficiency virus reverse transcriptase
O=c1ccn([C@@H]2O[C@H](CO)[C@@H](O)[C@H]2O)c(=O)[nH]1 [uridine],reversal of toxic effect of AZT in HBMP cells,[7],could reverse the toxic effect of AZT in HBMP cells
same,body temperature,[8],rapid and potentially dangerous rises in body temperature
same,elimination from the plasma,[8],rapidly eliminated from the plasma
Nc1ccn([C@@H]2O[C@H](CO)[C@@H](O)[C@H]2O)c(=O)n1 [cytidine],reversal of toxic effect of AZT in HBMP cells,[7],could reverse the toxic effect of AZT in HBMP cells
